Source: patent publication US20230416225A1, “DIAMINOPYRIMIDINE CARBOXAMIDE INHIBITORS OF HPK1” (MERCK SHARP & DOHME LLC, priority 2020, published 2023)

Target: T1, Human HPK1, catalytic domain (Homo sapiens, UniProt Q92918)
T1 construct: purchased Carna
T1 sequence (Q92918 1-346): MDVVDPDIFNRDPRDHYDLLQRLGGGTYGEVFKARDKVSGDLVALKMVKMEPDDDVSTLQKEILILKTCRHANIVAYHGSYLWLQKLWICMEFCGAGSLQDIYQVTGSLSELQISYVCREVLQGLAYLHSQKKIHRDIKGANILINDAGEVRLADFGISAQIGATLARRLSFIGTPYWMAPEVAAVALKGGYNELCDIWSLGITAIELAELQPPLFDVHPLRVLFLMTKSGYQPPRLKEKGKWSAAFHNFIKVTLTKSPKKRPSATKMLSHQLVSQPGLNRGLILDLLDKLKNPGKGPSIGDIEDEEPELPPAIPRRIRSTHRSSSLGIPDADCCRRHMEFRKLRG
Test: HPK1-SLP76 TR-FRET assay
Type: biochemical
Details: 75 pM HPK1, 10 uM ATP, 10 nM SLP76, 30 min compound pre-incubation

| IC50 [nM] | Structure (SMILES) |
| --- | --- |
| 38.6 | COc1cc2c(cc1Nc1ncc(C(N)=O)c(Nc3cc(C)nn3Cc3ccccc3)n1)CN(C)CC2 [Example 7-91, 4-((1-benzyl-3-methyl-1H-pyrazol-5-yl)amino)-2-((6-methoxy-2-methyl-1,2,3,4-tetrahydroisoquinolin-7-yl)amino)pyrimidine-5-carboxamide] |
| 3.01 | COc1cc2c(cc1Nc1ncc(C(N)=O)c(N[C@H]3CCCc4cc(F)ccc43)n1)CN(C)CC2 [Example 26-47, 4-{[(1S)-6-fluoro-1,2,3,4-tetrahydronaphthalen-1-yl]amino}-2-[(6-methoxy-2-methyl-1,2,3,4-tetrahydroisoquinolin-7-yl)amino]pyrimidine-5-carboxamide] |
| 0.48 | COc1cc2c(cc1Nc1ncc(C(N)=O)c(Nc3cc(C)ccc3Cl)n1)CN(C)CC2 [Example 4-18, 4-[(2-chloro-5-methylphenyl)amino]-2-[(6-methoxy-2-methyl-1,2,3,4-tetrahydroisoquinolin-7-yl)amino]pyrimidine-5-carboxamide] |
| 199 | COc1cc(C(=O)N2CCC(N(C)C)C2)ccc1Nc1ncc(C(N)=O)c(Nc2ccccc2C(F)(F)F)n1 (stereo not drawn) [Example 11-2, 2-((4-(3-(dimethylamino)pyrrolidine-1-carbonyl)-2-methoxyphenyl)amino)-4-((2-(trifluoromethyl)phenyl)amino)pyrimidine-5-carboxamide] |
| 0.2 | COc1cc2c(cc1Nc1ncc(C(N)=O)c(Nc3ccccc3OC(F)(F)F)n1)CN(C)CC2 [Example 7-115, 2-[(6-methoxy-2-methyl-1,2,3,4-tetrahydroisoquinolin-7-yl)amino]-4-{[2-(trifluoromethoxy)phenyl]amino} pyrimidine-5-carboxamide] |
| 30 | N#CC1(c2ccc(Nc3ncc(C(N)=O)c(Nc4ccccc4Br)n3)cc2)CC1 [Example 7-100, 4-[(2-bromophenyl)amino]-2-{[4-(1-cyanocyclopropyl)phenyl]amino} pyrimidine-5-carboxamide] |
| 0.95 | COc1cc2c(cc1Nc1ncc(C(N)=O)c(N[C@@H]3COC[C@H]3SC)n1)CN(C)CC2 [Example 26-8, 2-[(6-methoxy-2-methyl-1,2,3,4-tetrahydroisoquinolin-7-yl)amino]-4-{[(3R,4S)-4-(methylsulfanyl)oxolan-3-yl]amino}pyrimidine-5-carboxamide] |
| 0.21 | COc1cc2c(cc1Nc1ncc(C(N)=O)c(Nc3c(F)cccc3C(F)(F)F)n1)CN(C)CC21CC1 [Example 21-1, 4-((2-fluoro-6-(trifluoromethyl)phenyl)amino)-2-((6′-methoxy-2′-methyl-2′,3′-dihydro-1′H-spiro[cyclopropane-1,4′-isoquinolin]-7′-yl)amino)pyrimidine-5-carboxamide] |
| 0.12 | COc1cc2c(cc1Nc1ncc(C(N)=O)c(Nc3ccccc3C(F)(F)F)n1)C(C1CC1)N(C)CC2 (single isomer, unassigned) [Example 20-2, 2-((1-cyclopropyl-6-methoxy-2-methyl-1,2,3,4-tetrahydroisoquinolin-7-yl)amino)-4-((2-(trifluoromethyl)phenyl)amino)pyrimidine-5-carboxamide] |
| 3.31 | CC(C)(C)c1cccc(Nc2ncc(C(N)=O)c(Nc3cccc4c3CCNC4=O)n2)c1 [Example 25-20, 2-[(3-tert-butylphenyl)amino]-4-[(1-oxo-1,2,3,4-tetrahydroisoquinolin-5-yl)amino]pyrimidine-5-carboxamide] |
| 0.11 | Cc1cccc(F)c1Nc1nc(Nc2cc3c(cc2F)CCN(C)C3)ncc1C(N)=O [Example 4-6] |
| 0.54 | CC(N)c1cccc(Nc2nc(Nc3cc4c(cc3Cl)CCN(C)C4)ncc2C(N)=O)c1 (stereo not drawn) [Example 2-6, 4-{[3-(1-aminoethyl)phenyl]-amino}-2-[(6-chloro-2-methyl-1,2,3,4-tetrahydroisoquinolin-7-yl)amino]pyrimidine-5-carboxamide] |
| 1.14 | CC(C)(C#N)c1cccc(Nc2ncc(C(N)=O)c(Nc3cccc4c3CCNC4=O)n2)c1 [Example 25-3, 2-{[3-(2-cyanopropan-2-yl)phenyl]amino}-4-[(1-oxo-1,2,3,4-tetrahydroisoquinolin-5-yl)amino]pyrimidine-5-carboxamide] |
| 1.59 | COc1cc2c(cc1Nc1ncc(C(N)=O)c(Nc3cccc(CNC(=O)OC(C)(C)C)c3)n1)CN(C)CC2 [Example 2-1, tert-butyl {[3-({5-carbamoyl-2-[(6-methoxy-2-methyl-1,2,3,4-tetrahydroisoquinolin-7-yl)amino]pyrimidin-4-yl}amino)phenylmethyl} carbamate] |
| 9.48 | COc1cc(C2CCNC2)ccc1Nc1ncc(C(N)=O)c(Nc2ccccc2Br)n1 (stereo not drawn) [Example 8-3, 4-((2-bromophenyl)amino)-2-((2-methoxy-4-(pyrrolidin-3-yl)phenyl)amino)pyrimidine-5-carboxamide] |
| 32.8 | COc1cc2c(cc1Nc1ncc(C(N)=O)c(NC3CCc4ccc(C)cc43)n1)CN(C)CC2 (stereo not drawn) [Example 26-71, 2-[(6-methoxy-2-methyl-1,2,3,4-tetrahydroisoquinolin-7-yl)amino]-4-[(6-methyl-2,3-dihydro-1H-inden-1-yl)amino]pyrimidine-5-carboxamide] |
| 0.79 | COc1cc2c(cc1Nc1ncc(C(N)=O)c(Nc3c(F)cccc3F)n1)CNCC2 [Example 9-11, 4-(2,6-difluoroanilino)-2-[(6-methoxy-1,2,3,4-tetrahydroisoquinolin-7-yl)amino]pyrimidine-5-carboxamide] |
| 0.23 | COc1cc2c(cc1Nc1ncc(C(N)=O)c(Nc3ccccc3-n3ccnn3)n1)CN(C)CC2 [Example 7-77, 2-[(6-methoxy-2-methyl-1,2,3,4-tetrahydroisoquinolin-7-yl)amino]-4-{[2-(1H-1,2,3-triazol-1-yl)phenyl]amino}pyrimidine-5-carboxamide] |
| 40.6 | NC(=O)c1cnc(Nc2cnn(C3CCNCC3)c2)nc1NC1CCc2cc(F)c(F)cc21 (stereo not drawn) [Example 26-50, 4-[(5,6-difluoro-2,3-dihydro-1H-inden-1-yl)amino]-2-{[1-(piperidin-4-yl)-1H-pyrazol-4-yl]amino}pyrimidine-5-carboxamide] |
| 16.4 | COc1cc2c(cc1Nc1ncc(C(N)=O)c(Nc3ccccc3Br)n1)CN(C(C)C)CC2 [Example 9-8, 4-[(2-bromophenyl)amino]-2-{[6-methoxy-2-(propan-2-yl)-1,2,3,4-tetrahydroisoquinolin-7-yl]amino}pyrimidine-5-carboxamide] |
| 24.4 | NC(=O)c1cnc(Nc2ccccc2)nc1Nc1cccc2c1CCNC2=O [Example 25-1, 4-[(1-oxo-1,2,3,4-tetrahydroisoquinolin-5-yl)amino]-2-(phenylamino)pyrimidine-5-carboxamide] |
| 2.62 | COc1cc2c(cc1Nc1ncc(C(N)=O)c(NC3CCc4cc(F)cc(F)c43)n1)CN(C)CC2 (stereo not drawn) [Example 26-68, 4-[(5,7-difluoro-2,3-dihydro-1H-inden-1-yl)amino]-2-[(6-methoxy-2-methyl-1,2,3,4-tetrahydroisoquinolin-7-yl)amino]pyrimidine-5-carboxamide] |
| 9.29 | COc1cc2c(cc1Nc1ncc(C(N)=O)c(Nc3ccccc3-c3cc(C)no3)n1)CN(C)CC2 [Example 7-85, 2-((6-methoxy-2-methyl-1,2,3,4-tetrahydroisoquinolin-7-yl)amino)-4-((2-(3-methylisoxazol-5-yl)phenyl)amino)pyrimidine-5-carboxamide] |
| 48.3 | COc1cc2c(cc1Nc1ncc(C(N)=O)c(NCc3ccc(C#N)cc3)n1)CN(C)CC2 [Example 26-59, 4-{[(4-cyanophenyl)methyl]amino}-2-[(6-methoxy-2-methyl-1,2,3,4-tetrahydroisoquinolin-7-yl)amino]pyrimidine-5-carboxamide] |
| 0.61 | Cc1cccc(F)c1Nc1nc(Nc2cc3c(cc2Cl)CCN(C)C3)ncc1C(N)=O [Example 4-5, 2-[(6-chloro-2-methyl-1,2,3,4-tetrahydroisoquinolin-7-yl)amino]-4-[(2-fluoro-6-methylphenyl)amino] pyrimidine-5-carboxamide] |
| 14 | CS(=O)(=O)Cc1ccc(Nc2ncc(C(N)=O)c(Nc3ccccc3CO)n2)cc1 [Example 7-68, 4-{[2-(hydroxymethyl)phenyl]amino}-2-({4-[(methylsulfonyl)methyl]phenyl}amino)pyrimidine-5-carboxamide] |
| 244 | COc1cc2c(cc1Nc1ncc(C(N)=O)c(Nc3ccccc3Br)n1)CN(C(C)=O)CC2 [Example 12-2, 2-[(2-acetyl-6-methoxy-1,2,3,4-tetrahydroisoquinolin-7-yl)amino]-4-[(2-bromophenyl)amino]pyrimidine-5-carboxamide] |
| 0.15 | COc1cc2c(cc1Nc1ncc(C(N)=O)c(Nc3ccccc3N3C(=O)OC[C@@H]3C)n1)CN(C)CC2 [Example 7-2, 2-[(6-methoxy-2-methyl-1,2,3,4-tetrahydroisoquinolin-7-yl)amino]-4-({2-[(4S)-4-methyl-2-oxo-1,3-oxazolidin-3-yl]phenyl}amino)pyrimidine-5-carboxamide] |
| 0.81 | COc1cc2c(cc1Nc1ncc(C(N)=O)c(Nc3cccc(C)c3)n1)CN(C)CC2 [Example 7-22, 2-[(6-methoxy-2-methyl-1,2,3,4-tetrahydroisoquinolin-7-yl)amino]-4-[(3-methylphenyl)amino]pyrimidine-5-carboxamide] |
| 69 | NC(=O)c1cnc(Nc2ccc(F)c(C(F)(F)F)c2)nc1Nc1cccc2c1CCNC2=O [Example 25-37, 2-{[4-fluoro-3-(trifluoromethyl)phenyl]amino}-4-[(1-oxo-1,2,3,4-tetrahydroisoquinolin-5-yl)amino]pyrimidine-5-carboxamide] |
